Read-outs that look alike come from different tables or passages of the source.
Test system: type 2 herpes simplex virus (HSV)
Assay: HSV2 replication in human embryonic lung fibroblasts (virus yield)
Format: cell-based, HSV type 2
Conditions: for inhibition at 100 µM: Human alphaherpesvirus 2, Fibroblast, 28 h, read-out: % reduction in virus yield compared with control cultures
Procedure: Stearic and iodinated stearic acids were assayed for their inhibitory effects on the replication of type 2 herpes simplex virus (HSV) in sub-confluent monolayer cultures of human embryonic lung fibroblasts. […] This was accomplished by reacting hydriodic acid with oleic acid in acetic acid at 20°C. Excess iodine was removed at the end of the reaction by the addition of an excess of sodium thiosulphate, and the product fatty acid was extracted into hexane.
Bovine serum albumin conjugates of the fatty acids (prepared according to the method of A.A.Spector and-J.C.Hoak, J.Anal.Biochem. 1969, 32, 297-302) were added to the cell culture medium at various concentrations in the range 25 - 100 micromolar final concentration and at various times before and after (from 0 to 12 hours) infection with partially purified clinical isolates of HSV type 2, at a multiplicity of infection of 0.1 plaque forming units/cell.
28 hours after infection the titre of infectious virus in the culture supernatants was determined by standard infectious centre techniques on fresh human embryonic lung fibroblasts.

[1] = stearic acid 100 µM, time relative to infection 8 hours
[2] = stearic acid 100 µM, time relative to infection 12 hours
[3] = stearic acid 100 µM, time relative to infection -1 hours
[4] = stearic acid 100 µM, time relative to infection -2 hours
[5] = stearic acid 100 µM, time relative to infection -3 hours
[6] = stearic acid 100 µM, time relative to infection -4 hours
[7] = stearic acid 100 µM, time relative to infection -8 hours
[8] = stearic acid 100 µM, time relative to infection -12 hours

CCCCCCCCCCCCCCCCCC(=O)O [stearic acid, octadecanoic acid]
inhibition at 100 µM [1]: 7% | inhibition at 100 µM [2]: 1% | inhibition at 100 µM [3]: 30% | inhibition at 100 µM [4]: 36% | inhibition at 100 µM [5]: 35% | inhibition at 100 µM [6]: 20% | inhibition at 100 µM [7]: 0% | inhibition at 100 µM [8]: 0% | virus yield (stearic acid 25 µM, time relative to infection 1 hours): 4.11 x 10^-3 / pfu ml^-1 | virus yield (stearic acid 25 µM, time relative to infection 2 hours): 4.31 x 10^-3 / pfu ml^-1 | virus yield (stearic acid 25 µM, time relative to infection 3 hours): 3.89 x 10^-3 / pfu ml^-1 | virus yield (stearic acid 25 µM, time relative to infection 4 hours): 4.26 x 10^-3 / pfu ml^-1 | virus yield (stearic acid 25 µM, time relative to infection 8 hours): 4.41 x 10^-3 / pfu ml^-1 | virus yield (stearic acid 25 µM, time relative to infection 12 hours): 4.21 x 10^-3 / pfu ml^-1 | virus yield (stearic acid 25 µM, time relative to infection -1 hours): 4.06 x 10^-3 / pfu ml^-1 | virus yield (stearic acid 25 µM, time relative to infection -2 hours): 3.72 x 10^-3 / pfu ml^-1 | virus yield (stearic acid 25 µM, time relative to infection -3 hours): 4.15 x 10^-3 / pfu ml^-1 | virus yield (stearic acid 25 µM, time relative to infection -4 hours): 4.25 x 10^-3 / pfu ml^-1 | virus yield (stearic acid 25 µM, time relative to infection -8 hours): 3.88 x 10^-3 / pfu ml^-1 | virus yield (stearic acid 25 µM, time relative to infection -12 hours): 4.63 x 10^-3 / pfu ml^-1 | virus yield (stearic acid 50 µM, time relative to infection 0 hours): 4.00 x 10^-3 / pfu ml^-1 | virus yield (stearic acid 50 µM, time relative to infection 1 hours): 3.96 x 10^-3 / pfu ml^-1 | virus yield (stearic acid 50 µM, time relative to infection 2 hours): 4.45 x 10^-3 / pfu ml^-1 | virus yield (stearic acid 50 µM, time relative to infection 3 hours): 3.88 x 10^-3 / pfu ml^-1 | virus yield (stearic acid 50 µM, time relative to infection 4 hours): 4.36 x 10^-3 / pfu ml^-1 | virus yield (stearic acid 50 µM, time relative to infection 8 hours): 4.09 x 10^-3 / pfu ml^-1 | virus yield (stearic acid 50 µM, time relative to infection 12 hours): 3.92 x 10^-3 / pfu ml^-1 | virus yield (stearic acid 50 µM, time relative to infection -1 hours): 3.14 x 10^-3 / pfu ml^-1 | virus yield (stearic acid 50 µM, time relative to infection -2 hours): 3.02 x 10^-3 / pfu ml^-1 | virus yield (stearic acid 50 µM, time relative to infection -3 hours): 3.15 x 10^-3 / pfu ml^-1 | virus yield (stearic acid 50 µM, time relative to infection -4 hours): 3.98 x 10^-3 / pfu ml^-1 | virus yield (stearic acid 50 µM, time relative to infection -8 hours): 4.62 x 10^-3 / pfu ml^-1 | virus yield (stearic acid 50 µM, time relative to infection -12 hours): 4.75 x 10^-3 / pfu ml^-1 | virus yield (stearic acid 75 µM, time relative to infection 0 hours): 3.55 x 10^-3 / pfu ml^-1 | virus yield (stearic acid 75 µM, time relative to infection 1 hours): 4.44 x 10^-3 / pfu ml^-1 | virus yield (stearic acid 75 µM, time relative to infection 2 hours): 3.92 x 10^-3 / pfu ml^-1 | virus yield (stearic acid 75 µM, time relative to infection 3 hours): 4.53 x 10^-3 / pfu ml^-1 | virus yield (stearic acid 75 µM, time relative to infection 4 hours): 4.21 x 10^-3 / pfu ml^-1 | virus yield (stearic acid 75 µM, time relative to infection 8 hours): 3.87 x 10^-3 / pfu ml^-1 | virus yield (stearic acid 75 µM, time relative to infection 12 hours): 4.11 x 10^-3 / pfu ml^-1 | virus yield (stearic acid 75 µM, time relative to infection -1 hours): 2.54 x 10^-3 / pfu ml^-1 | virus yield (stearic acid 75 µM, time relative to infection -2 hours): 2.69 x 10^-3 / pfu ml^-1 | virus yield (stearic acid 75 µM, time relative to infection -3 hours): 2.31 x 10^-3 / pfu ml^-1 | virus yield (stearic acid 75 µM, time relative to infection -4 hours): 2.25 x 10^-3 / pfu ml^-1 | virus yield (stearic acid 75 µM, time relative to infection -8 hours): 4.18 x 10^-3 / pfu ml^-1 | virus yield (stearic acid 75 µM, time relative to infection -12 hours): 3.96 x 10^-3 / pfu ml^-1 | virus yield (stearic acid 100 µM, time relative to infection 0 hours): 3.85 x 10^-3 / pfu ml^-1 | virus yield (stearic acid 100 µM, time relative to infection 1 hours): 3.71 x 10^-3 / pfu ml^-1 | virus yield (stearic acid 100 µM, time relative to infection 2 hours): 3.96 x 10^-3 / pfu ml^-1 | virus yield (stearic acid 100 µM, time relative to infection 3 hours): 3.83 x 10^-3 / pfu ml^-1 | virus yield (stearic acid 100 µM, time relative to infection 4 hours): 4.52 x 10^-3 / pfu ml^-1 | virus yield [1]: 4.03 x 10^-3 / pfu ml^-1 | virus yield [2]: 4.28 x 10^-3 / pfu ml^-1 | virus yield [3]: 3.04 x 10^-3 / pfu ml^-1 | virus yield [4]: 2.77 x 10^-3 / pfu ml^-1 | virus yield [5]: 2.80 x 10^-3 / pfu ml^-1 | virus yield [6]: 3.45 x 10^-3 / pfu ml^-1 | virus yield [7]: 4.33 x 10^-3 / pfu ml^-1 | virus yield [8]: 4.72 x 10^-3 / pfu ml^-1

Source: patent publication EP0238198A2, “Method of modifying the lipid structure function and expression of cell membranes and pharmaceutical compositions for use therein” (Habib, Nagy Adly, priority 1986, dated 1987)
